Results published in patent US7816393B2, “Isoindoline compounds and methods of their use” (Celgene Corporation, priority 2008, dated 2010).

melting point: 334 to 336 °C
SMILES: NC(=O)C(CCC(=O)O)N1Cc2c(N)cccc2C1=O (stereo not shown) [Example 5.2, 4-(4-Amino-1-oxo-1,3-dihydro-isoindol-2-yl)-4-carbamoyl-butyric acid]
